Experimental data as given in PubChem BioAssay AID434940 (The Scripps Research Institute Molecular Screening Center, 2010).
Activity calls are given as the source filed them.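 The calls were made as follows: active = STAT3 activation with EC50 of 10 µM or lower; inactive = EC50 above 10 µM or none.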

Tested on: U3A STAT3-luciferase reporter, IL-6 stimulated, luminescence
Assay: enhancement of STAT3 luciferase transcription – U3A cells, luminescence, dose response, powder samples, counter-screen for STAT1 activator project, late-stage follow-up (AID 434940)

SMILES	EC50
Cc1cc(-c2ccncc2)n2ncc(-c3ccccc3)c2n1	> 55.7 µM (inactive)
COc1ccc(-c2cc(C)nc3c(-c4ccccc4)cnn23)cc1	> 55.7 µM (inactive)
COc1ccc2[nH]c3c(c2c1)CCn1c-3nc2ccccc2c1=O	> 18.6 µM (inactive)
CCN(CC)c1ccc2cc(C(=O)Nc3ccccn3)c(=O)oc2c1	0.804 µM
CC(=O)NC(=S)Nc1sc2c(c1C#N)CCCCC2	> 55.7 µM (inactive)
Cc1nnc(SCC(=O)Nc2ccc(-c3nc4ccccc4s3)cc2)s1	> 55.7 µM (inactive)
COc1ccc(-c2csc(N3C(=O)CNC3=S)n2)cc1	> 55.7 µM (inactive)
Cc1ccc(C(=O)Nc2nc3ccccc3s2)s1	> 55.7 µM (inactive)
O=C(/C=C/Nc1ccccc1F)c1ccc(Br)cc1	> 55.7 µM (inactive)
O=C(Nc1nc2ccccc2s1)c1cc2ccccc2s1	> 55.7 µM (inactive)
